Source: US8552175B2, “Sulfur transfer reagents for oligonucleotide synthesis” (A.M. Chemicals, Inc., priority 2009, dated 2013)

Legend:
[1] = system: solid support-bound internucleosidic phosphite triesters; assay: Sulfur transfer in solid phase synthesis of oligonucleotide phosphorothioates, HPLC and ES MS; details: for contact time required for complete sulfur transfer: optimized conditions

5-Phenyl-3H-1,2,4-dithiazol-3-thione [Compound 7]
contact time required for complete sulfur transfer ([1]; 0.02 M solution of reagent): 2 min
contact time required for complete sulfur transfer ([1]; 0.05 M solution of reagent): 1 min
contact time required for complete sulfur transfer ([1]; 0.1 M solution of reagent): 0.5 min
performance in oligonucleotide synthesis compared with compound 1 ([1]; in words): substantially similar performance

S=c1ncss1 [Compound 6, 3H-1,2,4-dithiazol-3-thione]
melting point: 73 to 75 °C
